Several values for one entry are separate records, joined by “and”; a condition that tells them apart may be missing. Equal values may be shown once. Entries after “also recorded” stand apart in the source; their conditions may differ. Read-outs that look alike come from different tables or passages of the source.
Columns and labels:
Format in all cases: in vivo, pig
lung injury = assay: histological evaluation of lung biopsies (four graded scale 0-3)
From the text: After euthanasia, the chest was opened and two approximately 2 × 1 × 1 cm pieces of lung tissue was cut from the left lung 3 cm from the hilus. One piece was immediately put in formaldehyde solution for later routine preparation for histological evaluation in hematoxylin and eosin staining. A pathologist, blinded for treatment group, evaluated the severity of lung injury in specimens on a four graded scale: 0 = no lung injury, 1 = mild lung injury, 2 = moderate lung injury and 3 = severe lung injury.

[1] = AEPU blood concentrations in LPS-treated pigs; settings: for AEPU conc, In 10uL blood / AEPU conc, In analyte: listed as AEPU
Experimental: (§1) One animal served as a pharmacokinetic pilot, with arterial and venous catheters placed in a cut-down in the neck. The remaining 21 animals were used for the randomized study (Figure 1). After intubation and start of mechanical ventilation, a second auricular vein cannula was placed and infusion of either AEPU or placebo according to randomization was started. After 2 h of infusion of AEPU or placebo, an infusion of LPS was started. A bolus of 0.1 mg/kg was administered during 30 min after which the infusion rate was adjusted to 0.01 mg/kg/h. During the time between start of AEPU or placebo and LPS infusion, neck dissection was performed, exposing the v jugularis externa and carotid artery. A pulmonary artery introducer and an arterial cannula were placed in vein and artery respectively, and a pulmonary artery catheter introduced through the introducer and the tip placed in the correct position in the pulmonary artery placement guided by continuous invasive pressure monitoring or, when difficult, assisted by fluoroscopy. All surgical procedures were performed under sterile conditions.
(§2) AEPU was synthesized according to Kim et al. ([Kim et al., 2007]), delivered in 60 mg vials and dissolved in 30 mL pure ethanol as a co-solvent, of which either 20 mL was added to 980 mL of sodium chloride 9 mg/mL or 8 mL–392 mL sodium chloride, creating a solution of 0.04 mg/mL AEPU and 2% ethanol. The placebo infusion was prepared by adding either 20 mL of pure ethanol to 980 mL of sodium chloride 9 mg/mL or 8 mL of pure ethanol to 392 mL sodium chloride, creating a 2% ethanol solution. Each animal received an infusion of either 0.1 mg/kg/h AEPU or the corresponding volume of placebo solution.
All animals were monitored with pulse oximetry, heart rate, ECG, systemic arterial blood pressure (ABP), pulmonary arterial pressure (PAP), central venous pressure (CVP) temperature, tidal volumes, respiratory rate and end tidal carbon dioxide. At baseline, and at 3 h, 6 h and at the end of the experiment, pulmonary capillary wedge pressure (PCWP) was measured together with arterial and venous blood gas analyses, as well as cardiac output calculations. Routine chemistry, including creatinine, bilirubin, glucose, electrolytes were collected at baseline and at the end of the experiment (Vetscan VS2®, Abaxis, Griesheim, Germany). Blood samples for measurement of AEPU plasma concentrations, as well as oxylipins (i.e., EpETrEs and their DiHETrE corresponding diols as well as related compounds with other polyunsaturated fatty acid precursors), were collected at baseline, 6 h and at the end of the experiment. Oxylipin analysis was performed according to a previously published protocol ([Gouveia-Figueira and Nording, 2015]).

[2] = pharmacokinetic pilot, continuous infusion in one animal
Experimental: as §1, §2
Infusion of AEPU at 0.1 mg/kg/h produced a progressive rise in blood concentration reaching steady state of approximately 200 nM at 120 min, maintained with only minor variations until the termination of infusion at 255 min. The elimination of AEPU after termination of infusion was rapid, showing complete elimination within 15 min (Figure 2).

CCOCCOCCOCCCCCNC(=O)NC12CC3CC(CC(C3)C1)C2 [Compound 950]
lungskada (lung injury; histology score, per case, listed as sEH-i 950): 3 and 2 | Lung injury (lung injury; histology, grade in words, per case, listed as sEH-i 950): Severe; also recorded: Moderate | Histological injury score (lung injury; scale 0-3, AEPU group): 2.7 (2–3) | 950 in blood spots ([1]; 6 h, individual pigs): 61 nM and 53 nM and 118 nM and 49 nM and 77 nM and 123 nM and 162 nM and 99 nM and 66 nM | 950 in blood spots ([1]; 9 h, individual pigs): 163 nM and 42 nM and 48 nM and 79 nM and 172 nM and 149 nM | concentration at 9 h ([1]; LPS start, average of pigs, read-out: 950 in blood spots, Average): 62 nM | 950 in blood spots ([1]; LPS start, individual pigs): 51 nM and 47 nM and 84 nM and 48 nM and 63 nM and 96 nM and 53 nM and 65 nM and 50 nM | concentration at 6 h ([1]; pig, whole blood (blood spots), intravenous, 0.1 mg/kg/h, 6 h, average of pigs, read-out: 950 in blood spots, Average): 90 nM | concentration at 9 h ([1]; pig, whole blood (blood spots), intravenous, 0.1 mg/kg/h, 9 h, average of pigs, read-out: 950 in blood spots, Average): 109 nM | AEPU conc, In 10uL blood ([1]; sample _6, individual pigs): 64.4 ng/mL and 39.4 ng/mL and 26.3 ng/mL and 24.4 ng/mL and 20.9 ng/mL and 46.8 ng/mL and 19.5 ng/mL and 30.4 ng/mL and 48.8 ng/mL | AEPU conc, In analyte ([1]; sample _6, individual pigs): 12.9 ng/mL and 7.9 ng/mL and 5.3 ng/mL and 4.9 ng/mL and 4.2 ng/mL and 9.4 ng/mL and 3.9 ng/mL and 6.1 ng/mL and 9.8 ng/mL | AEPU conc, In 10uL blood ([1]; sample _12, individual pigs): 68.1 ng/mL and 58.9 ng/mL and 0.0 ng/mL and 64.5 ng/mL and 16.7 ng/mL and 19.0 ng/mL and 31.2 ng/mL | AEPU conc, In analyte ([1]; sample _12, individual pigs): 13.6 ng/mL and 11.8 ng/mL and 12.9 ng/mL and 3.3 ng/mL and 3.8 ng/mL and 6.2 ng/mL | AEPU conc, In 10uL blood ([1]; sample _BL, individual pigs): 21.0 ng/mL and 25.7 ng/mL and 19.7 ng/mL and 20.3 ng/mL and 18.6 ng/mL and 33.4 ng/mL and 19.2 ng/mL and 25.1 ng/mL and 38.0 ng/mL | AEPU conc, In analyte ([1]; sample _BL, individual pigs): 4.2 ng/mL and 5.1 ng/mL and 3.9 ng/mL and 4.1 ng/mL and 3.7 ng/mL and 6.7 ng/mL and 3.8 ng/mL and 5.0 ng/mL and 7.6 ng/mL | time to complete elimination after termination of infusion ([2]; infusion 0.1 mg/kg/h): ≤ 15 min | concentration at 0 min ([2]; pig, whole blood, intravenous, 0.1 mg/kg/h, time 0 minutes, read-out: Conc in blood 950): 11 ng/mL | concentration at 5 min ([2]; pig, whole blood, intravenous, 0.1 mg/kg/h, time 5 minutes, read-out: Conc in blood 950): 45 ng/mL | concentration at 35 min ([2]; pig, whole blood, intravenous, 0.1 mg/kg/h, time 35 minutes, read-out: Conc in blood 950): 116 ng/mL | concentration at 65 min ([2]; pig, whole blood, intravenous, 0.1 mg/kg/h, time 65 minutes, read-out: Conc in blood 950): 174 ng/mL | concentration at 121 min ([2]; pig, whole blood, intravenous, 0.1 mg/kg/h, time 121 minutes, read-out: Conc in blood 950): 199 ng/mL | concentration at 185 min ([2]; pig, whole blood, intravenous, 0.1 mg/kg/h, time 185 minutes, read-out: Conc in blood 950): 202 ng/mL | concentration at 255 min ([2]; pig, whole blood, intravenous, 0.1 mg/kg/h, time 255 minutes, read-out: Conc in blood 950): 224 ng/mL | concentration at 270 min ([2]; pig, whole blood, intravenous, 0.1 mg/kg/h, time 270 minutes, read-out: Conc in blood 950): 0.189 ng/mL | concentration at 285 min ([2]; pig, whole blood, intravenous, 0.1 mg/kg/h, time 285 minutes, read-out: Conc in blood 950): 0.189 ng/mL | concentration at 300 min ([2]; pig, whole blood, intravenous, 0.1 mg/kg/h, time 300 minutes, read-out: Conc in blood 950): 0.189 ng/mL | concentration at 330 min ([2]; pig, whole blood, intravenous, 0.1 mg/kg/h, time 330 minutes, read-out: Conc in blood 950): 0.189 ng/mL | concentration at 120 min ([2]; pig, whole blood, intravenous, infusion 0.1 mg/kg/h, reached at 120 min, read-out: steady state blood concentration): ~200 nM
